Where two headings read alike, the source gives them in different places.
What was measured:
Assay type in all cases: cell-based
[1] = tested on: HepG2; test: MTT cytotoxicity assay, HepG2 (liver cancer); settings: Homo sapiens
Method: (§1) Cell survival after exposure to the sphingolipid metabolite mimetics was examined by MTT cytotoxicity assay. HepG2, A431, HeLa, MCF-7 and SA cells (7000 cells/well) were seeded in each well of a 96-well plate for 24 h. New medium was added to give final concentrations of 0 to 200 μM of the sphingolipid metabolite mimetics. Then, 50 μl of 1 mg/ml 3-(4,5-dimethylthiazol-2-yl)-2,5-diphenyltetrazolium bromide (MTT, Sigma-Aldrich Chemical) was added to each well for 4 h incubation at 37° C. The purple formazan formed was then solubilized by DMSO and absorbance at 570 nm was read by a microplate reader (Molecular Devices, Sunnyvale, Calif.).

[2] = tested on: A431; test: MTT cytotoxicity assay, A431 (squamous carcinoma); settings: Homo sapiens, A-431
Method: as §1

[3] = tested on: SA; test: MTT cytotoxicity assay, SA (pancreatic cancer as headed)
Method: as §1

[4] = tested on: MCF-7; test: MTT cytotoxicity assay, MCF-7 (breast cancer); settings: Homo sapiens, MCF7; Breast Cancer MCF-7, MTT
Method: as §1

[5] = tested on: SiHa; test: MTT cytotoxicity assay, SiHa (ovarian cancer as headed); settings: Homo sapiens, Cervical Cancer SiHa
[6] = tested on: SW620; test: MTT cytotoxicity assay, SW620 (colon cancer); settings: Homo sapiens, SW-620
[7] = tested on: SW480; test: MTT cytotoxicity assay, SW480 (colon cancer); settings: Homo sapiens
[8] = tested on: multiple types of cancer cells; test: MTT cytotoxicity, statements over several cancer cell lines; settings: for direct anti-cancer cell activity: summary statement
Method: as §1

[9] = tested on: SW620 cells; test: Drug sensitivity MTT assay with TRAIL, SW620; set-up: scale not given here; settings: for NZJU alone mean value (sensitivity, growth inhibition): drug alone (19-100 μM; TRAIL 100 ng/ml); for NZJU alone mean value (sensitivity, growth inhibition) / combine mean value (sensitivity, growth inhibition): 48 h; for Enhanced mean value: enhancement due to co-administration with TRAIL; for combine mean value (sensitivity, growth inhibition): mimetic at the dose of its row combined with TRAIL 100 ng/ml
Method: (§2) Cell survival after exposure to the anti-tumor agents was examined by MTT cytotoxicity assay. Cells were seeded in each well of a 96-well plate for 24 h. After incubation with various concentrations of compounds, TRAIL, or both for 48 h, the medium was discarded. Then, 50 μl of 1 mg/ml 3-(4,5-dimethylthiazol-2-yl)-2,5-diphenyltetrazolium bromide (MTT, Sigma-Aldrich Chemical) was added to each well for 4 h incubation at 37° C. The purple formazan formed was then solubilized by DMSO and absorbance at 570 nm was read by a microplate reader (Molecular Devices, Sunnyvale, Calif.).

[10] = tested on: MCF-7 cells; test: Drug sensitivity MTT assay with TRAIL, MCF-7; set-up: scale not given here; settings: for NZJU alone mean value (sensitivity, growth inhibition): drug alone (19-100 μM; TRAIL 100 ng/ml); for NZJU alone mean value (sensitivity, growth inhibition) / combine mean value (sensitivity, growth inhibition): 48 h; for Enhanced mean value: enhancement due to co-administration with TRAIL; for combine mean value (sensitivity, growth inhibition): mimetic at the dose of its row combined with TRAIL 100 ng/ml
Method: as §2

[11] = tested on: HELA cells; test: Drug sensitivity MTT assay with TRAIL, HELA; set-up: scale not given here; settings: for NZJU alone mean value (sensitivity, growth inhibition): drug alone (19-100 μM; TRAIL 100 ng/ml); for NZJU alone mean value (sensitivity, growth inhibition) / combine mean value (sensitivity, growth inhibition): 48 h; for Enhanced mean value: enhancement due to co-administration with TRAIL; for combine mean value (sensitivity, growth inhibition): mimetic at the dose of its row combined with TRAIL 100 ng/ml
Method: as §2

[12] = tested on: cancer cells (TRAIL resistance); test: Sensitization of cancer cells to TRAIL-induced apoptosis, general statements; settings: summary statement
Method: as §2

[13] = tested on: MES-SA cells; test: Apoptosis assay, Hoechst 33342 fluorescence staining; settings: doses of their IC50 for 8 h
Method: The cells were then washed with PBS and stained with Hoechst 33342 (from sigma chemical) for 20 min in the dark. Morphologic changes were analyzed under a fluorescence microscope. The experiment was repeated three times.

[14] = all five cell lines tested, read-out: IC50 values

SMILES | IC50 [1] [µM] | IC50 [2] [µM] | IC50 [3] [µM] | IC50 [4] [µM] | IC50 [5] [µM] | IC50 [6] [µM] | IC50 [7] [µM] | direct anti-cancer cell activity [8] | NZJU alone mean value (sensitivity, growth inhibition) [9] | Enhanced mean value [9] | combine mean value (sensitivity, growth inhibition) [9] | NZJU alone mean value (sensitivity, growth inhibition) [10] | Enhanced mean value [10] | combine mean value (sensitivity, growth inhibition) [10] | NZJU alone mean value (sensitivity, growth inhibition) [11] | Enhanced mean value [11] | combine mean value (sensitivity, growth inhibition) [11] | TRAIL sensitization activity [12] | apoptotic cell death, fluorescent micrographs (FIG. 30) [13] | also measured
CCCCCCCCCCCCNC(=O)[C@@H](NC(=O)c1ccco1)[C@@H](C)O [NZJU13, N-((2S,3R)-3-hydroxy-1-oxo-1-(dodecylamino)butan-2-yl)-Furan-2-carboxamide] | 147 ± 22.3 | 92.4 ± 2.64 | 93.5 ± 3.13 | 67.5 ± 4.88 | 64.3 ± 1.68 | 87.5 ± 7.58 | 125 ± 16.1 | direct anti-cancer cell activity | 0.126 | 0.321 | 0.520 | 0.148 | 0.321 | 0.582 | 0.146 | 0.254 | 0.435 | TRAIL sensitization activity |  | 
CCCCCCCCCCCCNC(=O)[C@@H](NC(=O)c1ccccc1)[C@@H](C)O [NZJU16, N-((2S,3R)-3-hydroxy-1-oxo-1-(dodecylamino)butan-2-yl)-benzamide] | > 400 | 41.2 ± 0.69 | 75.5 ± 6.24 | 36.6 ± 8.86 | 63.9 ± 6.01 | ≥ 200 | 67.2 ± 7.42 | direct anti-cancer cell activity | 0.376 | 0.304 | 0.607 | 0.479 | 0.197 | 0.741 | 0.264 | 0.298 | 0.597 | TRAIL sensitization activity |  | 
CCCCCCCCCCCCNC(=O)[C@@H](NC(=O)Cc1c[nH]c2ccccc12)[C@@H](C)O [NZJU27, N-((2S,3R)-3-hydroxy-1-oxo-1-(dodecylamino)butan-2-yl)-indole-3-acetic acid amide] | 22.6 ± 2.89 | 23.4 ± 3.48 | 20 ± 0.74 | 15.5 ± 2.3 | 13.6 ± 1.02 | 22 ± 2.86 | 20 | direct anti-cancer cell activity |  |  |  |  |  |  |  |  |  |  | apoptotic cell death | IC50 [8, 14]: < 30 µM
CCCCCCCCCCCCCCNC(=O)[C@@H](NC(=O)Cc1c[nH]c2ccccc12)[C@@H](C)O [NZJU28, N-((2S,3R)-3-hydroxy-1-oxo-1-(tetradecylamino)butan-2-yl)-indole-3-acetic acid amide] | 21.1 ± 1.92 | 15.5 ± 2.95 | 11.5 ± 0.97 | 6.81 ± 1.73 | 4.8 ± 0.29 | 22 ± 0.71 | 20 | direct anti-cancer cell activity |  |  |  |  |  |  |  |  |  |  | apoptotic cell death | IC50 [8, 14]: < 30 µM
CCCCCCCCCCCCNC(=O)[C@@H](NC(=O)c1nccc2ccccc12)[C@@H](C)O [NZJU30, N-((2S,3R)-3-hydroxy-1-oxo-1-(dodecylamino)butan-2-yl)-isoquinoline-1-carboxamide] | 65.7 ± 2.63 | 62.8 ± 7.56 | 51.93 ± 0.42 | 50.5 ± 5.65 | 56.6 ± 4.91 | 65.8 ± 4.14 | 58.8 | direct anti-cancer cell activity | −0.038 | 0.375 | 0.493 | 0.002 | 0.157 | 0.274 | 0.057 | 0.075 | 0.195 | TRAIL sensitization activity |  | NZJU alone mean value (sensitivity, growth inhibition) ([9]; listed as NZJU2f): very little sensitivity
CCCCCCCCCCCCCCNC(=O)[C@@H](NC(=O)c1cccs1)[C@@H](C)O [NZJU34, N-((2S,3R)-3-hydroxy-1-oxo-1-(tetradecylamino)butan-2-yl)-2-thiophene carboxamide] | 88.4 ± 15.5 | 26.4 ± 4.03 | 21.2 ± 3.78 | 36.07 ± 0.27 | 63 ± 0.25 | 78.4 ± 11.1 | 70.3 | direct anti-cancer cell activity | 0.315 | 0.275 | 0.664 | 0.444 | 0.263 | 0.759 | 0.334 | 0.375 | 0.744 | TRAIL sensitization activity |  | 
CCCCCCCCCCCCNC(=O)[C@@H](NC(=O)c1cc2ccccc2o1)[C@@H](C)O [NZJU36, N-((2S,3R)-3-hydroxy-1-oxo-1-(dodecylamino)butan-2-yl)-benzofuran-2-carboxamide] | 22.9 ± 1.18 | 20 ± 0.9 | 10.5 ± 1.31 | 20.9 ± 0.54 | 12.8 ± 2.07 | 21.3 ± 1.28 | 21.4 | direct anti-cancer cell activity |  |  |  |  |  |  |  |  |  |  | apoptotic cell death | IC50 [8, 14]: < 30 µM
C/C=C/C=C/C(=O)N[C@H](C(=O)NCCCCCCCC)[C@@H](C)O [NZJU41, (2E,4E)-N-((2S,3R)-3-hydroxy-1-oxo-1-(octylamino)butan-2-yl)-2,4-hexadienoic acid amide] | 102 ± 4.07 | 58.24 ± 0.11 | 40.4 ± 2.16 | 149 ± 3.24 | 123 ± 2.5 | ≥ 200 | 158 | direct anti-cancer cell activity | 0.551 | 0.169 | 0.790 | 0.347 | 0.113 | 0.625 | 0.362 | 0.421 | 0.819 | TRAIL sensitization activity |  | 
CCCCCCCCNC(=O)[C@@H](NC(=O)c1cc2ccccc2o1)[C@@H](C)O [NZJU45, N-((2S,3R)-3-hydroxy-1-oxo-1-(octylamino)butan-2-yl)-benzofuran-2-carboxamide] | 81.3 ± 9.13 | 52.7 ± 3.82 | 40.8 ± 3.63 | 47.2 ± 7.3 | 66.5 ± 2.5 | ≥ 200 |  | direct anti-cancer cell activity | 0.205 | 0.309 | 0.516 | 0.021 | 0.382 | 0.538 | 0.173 | 0.223 | 0.432 | TRAIL sensitization activity |  | 
CCCCCCCCCCCCCCNC(=O)[C@@H](NC(=O)c1cc2ccccc2[nH]1)[C@@H](C)O [NZJU48, N-((2S,3R)-3-hydroxy-1-oxo-1-(tetradecylamino)butan-2-yl)-indole-2-carboxamide] | 10.5 ± 0.35 | 12.2 ± 1.9 | 12.1 ± 2.77 |  | 14.2 ± 1.8 |  | 11.8 ± 1.46 | direct anti-cancer cell activity |  |  |  |  |  |  |  |  |  |  | apoptotic cell death | IC50 ([8]; all of the cell lines tested, read-out: IC50 values): < 20 µM; IC50 ([8]; multiple types of cancer cells, read-out: IC50): < 20 µM
CCCCCCCCCCCCCCNC(=O)[C@@H](NC(=O)c1cc2ccccc2n1C)[C@@H](C)O [NZJU51, N-((2S,3R)-3-hydroxy-1-oxo-1-(tetradecylamino)butan-2-yl)-(N-methyl)indole-2-carboxamide] | 34.5 ± 2.34 | 13.7 ± 1.73 | 25.7 ± 0.42 |  | 26.5 ± 2.33 |  | 34.2 ± 1.36 | direct anti-cancer cell activity |  |  |  |  |  |  |  |  |  |  | apoptotic cell death | 

From patent US20150031892A1, “SPHINGOLIPID METABOLITE MIMETICS” (Zhejiang University, priority 2012, published 2015)
